Experimental data from patent US7157495B2, “Hexahydrofuro[2,3-B]furan-3-YL-N-{3-[(1,3-benzodioxol-5-ylsulfonyl)(isobutyl)amino]-1-benzyl-2-hydroxypropyl}carbamate as retroviral protease inhibitor” (Tibotec Pharmaceuticals, Ltd., priority 1999, dated 2007).

These compounds were tested on HIV strain r13020 (assay: Antiviral spectrum, protease inhibitor resistant strain). Details: Human immunodeficiency virus 1, strain r13020; L10I, K20R, M36I, 154V, A71V, V82T, 184V.
Assay type: cell-based
Experimental: (§1) HIV- or mock-infected MT4 cells were incubated for five days in the presence of various concentrations of the inhibitor. At the end of the incubation period, all HIV-infected cells have been killed by the replicating virus in the control cultures in the absence of any inhibitor. Cell viability is measured by measuring the concentration of MTT, a yellow, water soluble tetrazolium dye that is converted to a purple, water insoluble formazan in the mitochondria of living cells only. Upon solubilization of the resulting formazan crystals with isopropanol, the absorbance of the solution is monitored at 540 nm. The values correlate directly to the number of living cells remaining in the culture at the completion of the five day incubation. The inhibitory activity of the compound was monitored on the virus-infected cells and was expressed as IC50 and IC90. These values represent the amount of the compound required to protect 50% and 90%, respectively, of the cells from the cytopathogenic effect of the virus. The toxicity of the compound was measured on the mock-infected cells and was expressed as CC50, which represents the concentration of compound required to inhibit the growth of the cells by 50%. The select index (SI) (ratio CC50/IC50) is an indication of the selectivity of the anti-HIV activity of the inhibitor.
(§2) Because of the increasing emergence of drug resistant HIV strains, compound 13 and compound 14 were tested for its potency against HIV strains harbouring several mutations. These mutations are associated with resistance to protease inhibitors and result in viruses that show various degrees of phenotypic cross-resistance to five of the currently commercially available drugs (Saquinavir, Ritonavir, Nelfinavir, Indinavir and Amprenavir).

Structure (SMILES) | IC50
CC(C)(C)NC(=O)[C@@H]1C[C@@H]2CCCC[C@@H]2CN1C[C@@H](O)[C@H](Cc1ccccc1)NC(=O)[C@H](CC(N)=O)NC(=O)c1ccc2ccccc2n1 [SAQ, Saquinavir] | 3.51 µM
CC(C)(C)NC(=O)[C@@H]1CN(Cc2cccnc2)CCN1C[C@@H](O)C[C@@H](Cc1ccccc1)C(=O)N[C@H]1c2ccccc2C[C@H]1O [IND, Indinavir] | 1.38 µM

These compounds were tested on HIV strain r13022 in the same assay as above. Details: Human immunodeficiency virus 1, strain r13022; K20R, M36I, M46I/M, 154V, L63P, A71V/I, V82T, L90M.
Assay type: cell-based
Experimental: as §1, §2

Structure (SMILES) | IC50
CC(C)(C)NC(=O)[C@@H]1C[C@@H]2CCCC[C@@H]2CN1C[C@@H](O)[C@H](Cc1ccccc1)NC(=O)[C@H](CC(N)=O)NC(=O)c1ccc2ccccc2n1 [SAQ, Saquinavir] | 0.665 µM
CC(C)(C)NC(=O)[C@@H]1CN(Cc2cccnc2)CCN1C[C@@H](O)C[C@@H](Cc1ccccc1)C(=O)N[C@H]1c2ccccc2C[C@H]1O [IND, Indinavir] | 1.7 µM

These compounds were tested on HIV strain r13025 in the same assay as above. Details: Human immunodeficiency virus 1, strain r13025; L10I, M46I, L63P, A71V, I84V.
Assay type: cell-based
Experimental: as §1, §2

Structure (SMILES) | IC50
CC(C)(C)NC(=O)[C@@H]1C[C@@H]2CCCC[C@@H]2CN1C[C@@H](O)[C@H](Cc1ccccc1)NC(=O)[C@H](CC(N)=O)NC(=O)c1ccc2ccccc2n1 [SAQ, Saquinavir] | 0.157 µM
CC(C)(C)NC(=O)[C@@H]1CN(Cc2cccnc2)CCN1C[C@@H](O)C[C@@H](Cc1ccccc1)C(=O)N[C@H]1c2ccccc2C[C@H]1O [IND, Indinavir] | 1.25 µM

The compounds below were run on HIV strain r13034 in the same assay as above. Details: Human immunodeficiency virus 1, strain r13034; L10I, M36I, I54V, L63P, A71V, I84V.
Assay type: cell-based
Experimental: as §1, §2

Structure (SMILES) | IC50
CC(C)(C)NC(=O)[C@@H]1C[C@@H]2CCCC[C@@H]2CN1C[C@@H](O)[C@H](Cc1ccccc1)NC(=O)[C@H](CC(N)=O)NC(=O)c1ccc2ccccc2n1 [SAQ, Saquinavir] | 1.01 µM
CC(C)(C)NC(=O)[C@@H]1CN(Cc2cccnc2)CCN1C[C@@H](O)C[C@@H](Cc1ccccc1)C(=O)N[C@H]1c2ccccc2C[C@H]1O [IND, Indinavir] | 0.638 µM

Each compound was assayed on HIV strain r13027 in the same assay as above. Details: Human immunodeficiency virus 1, strain r13027; L10M/I, K20R, M36I, L63P, A71V, G73S, V77I, I84V, L90M.
Assay type: cell-based
Experimental: as §1, §2

Structure (SMILES) | IC50
CC(C)(C)NC(=O)[C@@H]1C[C@@H]2CCCC[C@@H]2CN1C[C@@H](O)[C@H](Cc1ccccc1)NC(=O)[C@H](CC(N)=O)NC(=O)c1ccc2ccccc2n1 [SAQ, Saquinavir] | 2.92 µM
CC(C)(C)NC(=O)[C@@H]1CN(Cc2cccnc2)CCN1C[C@@H](O)C[C@@H](Cc1ccccc1)C(=O)N[C@H]1c2ccccc2C[C@H]1O [IND, Indinavir] | 0.714 µM

These compounds were tested on HIV strain r13037 in the same assay as above. Details: Human immunodeficiency virus 1, strain r13037; L10I, M46I, I54V, L63P, A71T, V77I, V82A, L90M.
Assay type: cell-based
Experimental: as §1, §2

Structure (SMILES) | IC50
CC(C)(C)NC(=O)[C@@H]1C[C@@H]2CCCC[C@@H]2CN1C[C@@H](O)[C@H](Cc1ccccc1)NC(=O)[C@H](CC(N)=O)NC(=O)c1ccc2ccccc2n1 [SAQ, Saquinavir] | 0.0274 µM
CC(C)(C)NC(=O)[C@@H]1CN(Cc2cccnc2)CCN1C[C@@H](O)C[C@@H](Cc1ccccc1)C(=O)N[C@H]1c2ccccc2C[C@H]1O [IND, Indinavir] | 0.196 µM

What follows are compounds tested on HIV strain r13030 in the same assay as above. Details: Human immunodeficiency virus 1, strain r13030; L10V/I, M36I, I54V, L63P, A71V, V82T, L90M.
Assay type: cell-based
Experimental: as §1, §2

Structure (SMILES) | IC50
CC(C)(C)NC(=O)[C@@H]1C[C@@H]2CCCC[C@@H]2CN1C[C@@H](O)[C@H](Cc1ccccc1)NC(=O)[C@H](CC(N)=O)NC(=O)c1ccc2ccccc2n1 [SAQ, Saquinavir] | 0.173 µM
CC(C)(C)NC(=O)[C@@H]1CN(Cc2cccnc2)CCN1C[C@@H](O)C[C@@H](Cc1ccccc1)C(=O)N[C@H]1c2ccccc2C[C@H]1O [IND, Indinavir] | 0.574 µM

What follows are compounds tested on HIV strain r13024 in the same assay as above. Details: Human immunodeficiency virus 1, strain r13024; L10I, M36I, L63P, A71V, G73S, I84V, L90M.
Assay type: cell-based
Experimental: as §1, §2

Structure (SMILES) | IC50
CC(C)(C)NC(=O)[C@@H]1C[C@@H]2CCCC[C@@H]2CN1C[C@@H](O)[C@H](Cc1ccccc1)NC(=O)[C@H](CC(N)=O)NC(=O)c1ccc2ccccc2n1 [SAQ, Saquinavir] | 2.09 µM
CC(C)(C)NC(=O)[C@@H]1CN(Cc2cccnc2)CCN1C[C@@H](O)C[C@@H](Cc1ccccc1)C(=O)N[C@H]1c2ccccc2C[C@H]1O [IND, Indinavir] | 1.07 µM

The compounds below were run on HIV strain r13026 in the same assay as above. Details: Human immunodeficiency virus 1, strain r13026; L10I, M46I, I54V, L63P, A71V, V82T, I84V.
Assay type: cell-based
Experimental: as §1, §2

Structure (SMILES) | IC50
CC(C)(C)NC(=O)[C@@H]1C[C@@H]2CCCC[C@@H]2CN1C[C@@H](O)[C@H](Cc1ccccc1)NC(=O)[C@H](CC(N)=O)NC(=O)c1ccc2ccccc2n1 [SAQ, Saquinavir] | 1.99 µM
CC(C)(C)NC(=O)[C@@H]1CN(Cc2cccnc2)CCN1C[C@@H](O)C[C@@H](Cc1ccccc1)C(=O)N[C@H]1c2ccccc2C[C@H]1O [IND, Indinavir] | 2.72 µM

Each compound was assayed on HIV strain r13036 in the same assay as above. Details: Human immunodeficiency virus 1, strain r13036; L10I, L63P, A71V, G73S, L90M.
Assay type: cell-based
Experimental: as §1, §2

Structure (SMILES) | IC50
CC(C)(C)NC(=O)[C@@H]1C[C@@H]2CCCC[C@@H]2CN1C[C@@H](O)[C@H](Cc1ccccc1)NC(=O)[C@H](CC(N)=O)NC(=O)c1ccc2ccccc2n1 [SAQ, Saquinavir] | 0.514 µM
CC(C)(C)NC(=O)[C@@H]1CN(Cc2cccnc2)CCN1C[C@@H](O)C[C@@H](Cc1ccccc1)C(=O)N[C@H]1c2ccccc2C[C@H]1O [IND, Indinavir] | 0.638 µM

These compounds were tested on HIV strain r13031 in the same assay as above. Details: Human immunodeficiency virus 1, strain r13031; G48V, I54V, V77I, V82A, L90M/L.
Assay type: cell-based
Experimental: as §1, §2

Structure (SMILES) | IC50
CC(C)(C)NC(=O)[C@@H]1C[C@@H]2CCCC[C@@H]2CN1C[C@@H](O)[C@H](Cc1ccccc1)NC(=O)[C@H](CC(N)=O)NC(=O)c1ccc2ccccc2n1 [SAQ, Saquinavir] | 0.673 µM
CC(C)(C)NC(=O)[C@@H]1CN(Cc2cccnc2)CCN1C[C@@H](O)C[C@@H](Cc1ccccc1)C(=O)N[C@H]1c2ccccc2C[C@H]1O [IND, Indinavir] | 0.154 µM

These compounds were tested on HIV strain r13021 in the same assay as above. Details: Human immunodeficiency virus 1, strain r13021; L10I, K20R, L24I, M36I, I54V, L63P, A71V, V82T, I84V.
Assay type: cell-based
Experimental: as §1, §2

Structure (SMILES) | IC50
CC(C)(C)NC(=O)[C@@H]1C[C@@H]2CCCC[C@@H]2CN1C[C@@H](O)[C@H](Cc1ccccc1)NC(=O)[C@H](CC(N)=O)NC(=O)c1ccc2ccccc2n1 [SAQ, Saquinavir] | 1.45 µM
CC(C)(C)NC(=O)[C@@H]1CN(Cc2cccnc2)CCN1C[C@@H](O)C[C@@H](Cc1ccccc1)C(=O)N[C@H]1c2ccccc2C[C@H]1O [IND, Indinavir] | 1.75 µM

Each compound was assayed on HIV strain r13029 in the same assay as above. Details: Human immunodeficiency virus 1, strain r13029; L10I/L, M36I, M46L, L63P, A71V, I84V, N88D, L90M.
Assay type: cell-based
Experimental: as §1, §2

Structure (SMILES) | IC50
CC(C)(C)NC(=O)[C@@H]1C[C@@H]2CCCC[C@@H]2CN1C[C@@H](O)[C@H](Cc1ccccc1)NC(=O)[C@H](CC(N)=O)NC(=O)c1ccc2ccccc2n1 [SAQ, Saquinavir] | 2.61 µM
CC(C)(C)NC(=O)[C@@H]1CN(Cc2cccnc2)CCN1C[C@@H](O)C[C@@H](Cc1ccccc1)C(=O)N[C@H]1c2ccccc2C[C@H]1O [IND, Indinavir] | 0.922 µM

What follows are compounds tested on HIV strain r13023 in the same assay as above. Details: Human immunodeficiency virus 1, strain r13023; L10I, M36I/M, I54V/I, L63P, A71V, G73S, I84V, L90M.
Assay type: cell-based
Experimental: as §1, §2

Structure (SMILES) | IC50
CC(C)(C)NC(=O)[C@@H]1C[C@@H]2CCCC[C@@H]2CN1C[C@@H](O)[C@H](Cc1ccccc1)NC(=O)[C@H](CC(N)=O)NC(=O)c1ccc2ccccc2n1 [SAQ, Saquinavir] | 0.783 µM
CC(C)(C)NC(=O)[C@@H]1CN(Cc2cccnc2)CCN1C[C@@H](O)C[C@@H](Cc1ccccc1)C(=O)N[C@H]1c2ccccc2C[C@H]1O [IND, Indinavir] | 0.68 µM

Each compound was assayed on HIV strain r13035 in the same assay as above. Details: Human immunodeficiency virus 1, strain r13035; D30N, L63P, V77I, N88D.
Assay type: cell-based
Experimental: as §1, §2

Structure (SMILES) | IC50
CC(C)(C)NC(=O)[C@@H]1C[C@@H]2CCCC[C@@H]2CN1C[C@@H](O)[C@H](Cc1ccccc1)NC(=O)[C@H](CC(N)=O)NC(=O)c1ccc2ccccc2n1 [SAQ, Saquinavir] | 0.0053 µM
CC(C)(C)NC(=O)[C@@H]1CN(Cc2cccnc2)CCN1C[C@@H](O)C[C@@H](Cc1ccccc1)C(=O)N[C@H]1c2ccccc2C[C@H]1O [IND, Indinavir] | 0.0074 µM

These compounds were tested on HIV strain r13033 in the same assay as above. Details: Human immunodeficiency virus 1, strain r13033; L10I, M46L, I54V, L63P, A71V, V82A, L90M.
Assay type: cell-based
Experimental: as §1, §2

Structure (SMILES) | IC50
CC(C)(C)NC(=O)[C@@H]1C[C@@H]2CCCC[C@@H]2CN1C[C@@H](O)[C@H](Cc1ccccc1)NC(=O)[C@H](CC(N)=O)NC(=O)c1ccc2ccccc2n1 [SAQ, Saquinavir] | 0.0521 µM
CC(C)(C)NC(=O)[C@@H]1CN(Cc2cccnc2)CCN1C[C@@H](O)C[C@@H](Cc1ccccc1)C(=O)N[C@H]1c2ccccc2C[C@H]1O [IND, Indinavir] | 0.848 µM

Each compound was assayed on HIV-1 strain LAI (assay: Cellular anti-HIV assay in MT4 cells (MTT)). Details: Human immunodeficiency virus 1, MT4.
Assay type: cell-based
Experimental: as §1

Structure (SMILES) | IC50
CC(C)(C)NC(=O)[C@@H]1C[C@@H]2CCCC[C@@H]2CN1C[C@@H](O)[C@H](Cc1ccccc1)NC(=O)[C@H](CC(N)=O)NC(=O)c1ccc2ccccc2n1 [SAQ, Saquinavir] | 0.0079 µM

Same assay, conditions: Human immunodeficiency virus 1, MT4, strain LAI; read-out: IC50

Structure (SMILES) | IC50
CC(C)(C)NC(=O)[C@@H]1CN(Cc2cccnc2)CCN1C[C@@H](O)C[C@@H](Cc1ccccc1)C(=O)N[C@H]1c2ccccc2C[C@H]1O [IND, Indinavir] | 0.0276 µM
